Experimental data taken from patent publication US20070275968A1, “Substituted Biphenyl Derivative” (priority 2004, published 2007).

SMILES | melting point [°C]
Cc1cccc(-c2[nH]c(C(C)C)nc2-c2cccc(-c3ccc(S(N)(=O)=O)cc3F)c2)n1 [Example 75, 2-Fluoro-3′-[2-isopropyl-5-(6-methylpyridin-2-yl)-1H-imidazol-4-yl]-1,1′-biphenyl-4-sulfonamide] | 246 to 248
Cc1cccc(-c2[nH]c(C(C)C)nc2-c2cccc(-c3ccc(N)cn3)c2)n1 [Example 76, 6-{3-[2-Isopropyl-5-(6-methylpyridin-2-yl)-1H-imidazol-4-yl]phenyl}pyridine-3-amine] | 119 to 124
Cc1cccc(-c2[nH]c(C(C)C)nc2-c2cccc(-c3cc[nH]c3)c2)n1 [Example 78, 2-{2-Isopropyl-4-[3-(1H-pyrrol-3-yl)phenyl]-1H-imidazol-5-yl}-6-methylpyridine] | 112 to 114
Cc1cccc(-c2[nH]c(C(C)C)nc2-c2cccc(-c3ccc4c(c3)C(=O)CC[S+]4[O-])c2)n1 (stereo not shown) [Example 80, 6-{3-[2-Isopropyl-5-(6-methylpyridin-2-yl)-1H-imidazol-4-yl]phenyl}-2,3-dihydro-4H-thiochromen-4-one 1-oxide] | 145 to 148
Cc1cccc(-c2[nH]c(C(C)C)nc2-c2cccc(-c3ccc4c(c3)C(=O)CCS4(=O)=O)c2)n1 [Example 81, 6-{3-[2-Isopropyl-5-(6-methylpyridin-2-yl)-1H-imidazol-4-yl]phenyl}-2,3-dihydro-4H-thiochromen-4-one 1,1-dioxide] | 115 to 119
Cc1cccc(-c2[nH]c(C(C)C)nc2-c2cccc(-c3ccc4c(c3)CCCS4)c2)n1 [Example 82, 2-{4-[3-(3,4-Dihydro-2H-thiochromen-6-yl)phenyl]-2-isopropyl-1H-imidazol-5-yl}-6-methylpyridine] | 115 to 117
Cc1cccc(-c2[nH]c(C(C)C)nc2-c2cccc(-c3ccc4c(c3)CCC[S+]4[O-])c2)n1 (stereo not shown) [Example 83, 2-{2-Isopropyl-4-[3-(1-oxido-3,4-dihydro-2H-thiochromen-6-yl)phenyl]-1H-imidazol-5-yl}-6-methylpyridine] | 136 to 139
Cc1cccc(-c2[nH]c(C(C)C)nc2-c2cccc(-c3ccc4c(c3)C=CS4(=O)=O)c2)n1 [Example 85, 2-{4-[3-(1,1-Dioxido-1-benzothien-5-yl)phenyl]-2-isopropyl-1H-imidazol-5-yl}-6-methylpyridine] | 137 to 138
Cc1cccc(-c2[nH]c(C(C)C)nc2-c2cccc(-c3ccc4c(c3)CCS4(=O)=O)c2)n1 [Example 86, 2-{4-[3-(1,1-Dioxido-2,3-dihydro-1-benzothien-5-yl)phenyl]-2-isopropyl-1H-imidazol-5-yl}-6-methylpyridine] | 128 to 131
Cc1cccc(-c2[nH]c(C(C)C)nc2-c2cccc(-c3ccc(NS(=O)(=O)C4CC4)cn3)c2)n1 [Example 87, N-(6-{3-[2-Isopropyl-5-(6-methylpyridin-2-yl)-1H-imidazol-4-yl]phenyl}pyridin-3-yl)cyclopropanesulfonamide] | 133 to 136
Cc1cccc(-c2[nH]c(C(C)C)nc2-c2cccc(-c3ccc(S(C)(=O)=O)cn3)c2)n1 [Example 88, 2-{3-[2-Isopropyl-5-(6-methylpyridin-2-yl)-1H-imidazol-4-yl]phenyl}-5-(methylsulfonyl)pyridine] | 112 to 114
Cc1cccc(-c2[nH]c(C(C)C)nc2-c2cccc(-n3ccnc3)c2)n1 [Example 90, 2-{4-[3-(1H-Imidazol-1-yl)phenyl]-2-isopropyl-1H-imidazol-5-yl}-6-methylpyridine] | 158 to 161
Cc1cccc(-c2[nH]c(C(C)C)nc2-c2ccc(F)c(-c3ccc(NC(=O)NN4CCN(C)CC4)cc3)c2)n1 [Example 92, N-{2′-Fluoro-5′-[2-isopropyl-5-(6-methylpyridin-2-yl)-1H-imidazol-4-yl]-1,1′-biphenyl-4-yl}-N′-(4-methylpiperazin-1-yl)urea] | 145
Cc1cccc(-c2[nH]c(C(C)C)nc2-c2ccc(F)c(-c3ccc[nH]3)c2)n1 [Example 93, 2-{4-[4-Fluoro-3-(1H-pyrrol-2-yl)phenyl]-2-isopropyl-1H-imidazol-5-yl}-6-methylpyridine] | 103 to 106
Cc1cccc(-c2[nH]c(C(C)C)nc2-c2ccc(F)c(-c3ccc(NC(=O)NC4CCN(C)CC4)cc3)c2)n1 [Example 95, N-{2′-Fluoro-5′-[2-isopropyl-5-(6-methylpyridin-2-yl)-1H-imidazol-4-yl]-1,1′-biphenyl-4-yl}-N′-(1-methylpiperidin-4-yl)urea] | 145
Cc1cccc(-c2[nH]c(C(C)C)nc2-c2ccc(F)c(-c3ccc(N4CCOCC4)cc3)c2)n1 [Example 100, 4-{2′-Fluoro-5′-[2-isopropyl-5-(6-methylpyridin-2-yl)-1H-imidazol-4-yl]-1,1′-biphenyl-4-yl}morpholine] | 109 to 111
Cc1cccc(-c2[nH]c(C(C)C)nc2-c2ccc(F)c(-c3ccc(C(=O)O)cc3)c2)n1 [Example 101, 2′-Fluoro-5′-[2-isopropyl-5-(6-methylpyridin-2-yl)-1H-imidazol-4-yl]-1,1′-biphenyl-4-carboxylic acid] | 160 to 161

SMILES | melting point [°C]
Cc1cccc(-c2[nH]c(C(C)C)nc2-c2ccc(F)c(-c3c[nH]nn3)c2)n1 [Example 106, 2-{4-[4-Fluoro-3-(1H-1,2,3-triazol-4-yl)phenyl]-2-isopropyl-1H-imidazol-5-yl}-6-methylpyridine] | 233 to 235
CCn1cc(-c2cc(-c3[nH]c(C(C)C)nc3-c3cccc(C)n3)ccc2F)cn1 [Example 107, 2-{5-[3-(1-Ethyl-1H-pyrazol-4-yl)-4-fluorophenyl]-2-isopropyl-1H-imidazol-4-yl}-6-methylpyridine] | 76 to 78
Cc1cccc(-c2nc(C(C)C)[nH]c2-c2ccc(F)c(-c3cnn(C(C)C)c3)c2)n1 [Example 108, 2-{5-[4-Fluoro-3-(1-isopropyl-1H-pyrazol-4-yl)phenyl]-2-isopropyl-1H-imidazol-4-yl}-6-methylpyridine] | 84 to 85
Cc1cccc(-c2nc(C(C)C)[nH]c2-c2ccc(F)c(-c3ccc(NS(=O)(=O)C4CC4)cc3)c2)n1 [Example 111, N-{2′-Fluoro-5′-[2-isopropyl-4-(6-methylpyridin-2-yl)-1H-imidazol-5-yl]-1,1′-biphenyl-4-yl}cyclopropanesulfonamide] | 119 to 129
Cc1cccc(-c2nc(C(C)C)[nH]c2-c2ccc(F)c(-c3ccco3)c2)n1 [Example 113, 2-{5-[4-Fluoro-3-(2-furyl)phenyl]-2-isopropyl-1H-imidazol-4-yl}-6-methylpyridine] | 78 to 90
Cc1cccc(-c2[nH]c(C(C)C)nc2-c2ccc(F)c(-c3ccc(O)cc3)c2)n1 [Example 114, 2′-Fluoro-5′-[2-isopropyl-5-(6-methylpyridin-2-yl)-1H-imidazol-4-yl]-1,1′-biphenyl-4-ol] | 143 to 145
Cc1cccc(-c2[nH]c(C(C)C)nc2-c2ccc(F)c(-c3cc[nH]c3)c2)n1 [Example 123, 2-{4-[4-Fluoro-3-(1H-pyrrol-3-yl)phenyl]-2-isopropyl-1H-imidazol-5-yl}-6-methylpyridine] | 106 to 110
Cc1cccc(-c2[nH]c(C(C)C)nc2-c2ccc(F)c(-c3ccc(S(C)(=O)=O)cn3)c2)n1 [Example 124, 2-{2-Fluoro-5-[2-isopropyl-5-(6-methylpyridin-2-yl)-1H-imidazol-4-yl]phenyl}-5-(methylsulfonyl)pyridine] | 105 to 108
Cc1cccc(-c2[nH]c(C(C)C)nc2-c2ccc(F)c(-c3ccc([S+](C)[O-])nc3)c2)n1 (stereo not shown) [Example 128, 5-{2-Fluoro-5-[2-isopropyl-5-(6-methylpyridin-2-yl)-1H-imidazol-4-yl]phenyl}-2-(methylsulfinyl)pyridine] | 100 to 102
Cc1cccc(-c2[nH]c(C(C)C)nc2-c2ccc(F)c(-c3ccc(S(C)(=O)=O)nc3)c2)n1 [Example 129, 5-{2-Fluoro-5-[2-isopropyl-5-(6-methylpyridin-2-yl)-1H-imidazol-4-yl]phenyl}-2-(methylsulfonyl)pyridine] | 102 to 105
Cc1cccc(-c2[nH]c(C(C)C)nc2-c2ccc(F)c(-c3nc[nH]n3)c2)n1 [Example 133, 2-{4-[4-Fluoro-3-(1H-1,2,4-triazol-3-yl)phenyl]-2-isopropyl-1H-imidazol-5-yl}-6-methylpyridine] | 184 to 186
Cc1cccc(-c2[nH]c(C(C)C)nc2-c2ccc(F)c(-c3ncc[nH]3)c2)n1 [Example 134, 2-{4-[4-Fluoro-3-(1H-imidazol-2-yl)phenyl]-2-isopropyl-1H-imidazol-5-yl}-6-methylpyridine] | 201 to 205
Cc1cccc(-c2[nH]c(C(C)C)nc2-c2ccc(F)c(-c3cc[nH]n3)c2)n1 [Example 135, 2-{4-[4-Fluoro-3-(1H-pyrazol-3-yl)phenyl]-2-isopropyl-1H-imidazol-5-yl}-6-methylpyridine] | 195 to 198
Cc1cccc(-c2[nH]c(C(C)C)nc2-c2ccc(F)c(-c3c[nH]c(=O)[nH]3)c2)n1 [Example 140, 4-{2-Fluoro-5-[2-isopropyl-5-(6-methylpyridin-2-yl)-1H-imidazol-4-yl]phenyl}-1,3-dihydro-2H-imidazol-2-one] | 177 to 180
Cc1cccc(-c2[nH]c(C(C)C)nc2-c2ccc(F)c(-c3c[nH]c(C)n3)c2)n1 [Example 141, 2-{4-[4-Fluoro-3-(2-methyl-1H-imidazol-4-yl)phenyl]-2-isopropyl-1H-imidazol-5-yl}-6-methylpyridine] | 230 to 234
CCc1nc(-c2cc(-c3nc(C(C)C)[nH]c3-c3cccc(C)n3)ccc2F)c[nH]1 [Example 142, 2-{4-[3-(2-Ethyl-1H-imidazol-4-yl)-4-fluorophenyl]-2-isopropyl-1H-imidazol-5-yl}-6-methylpyridine] | 170 to 175
Cc1cccc(-c2n[nH]cc2-c2ccc(F)c(-c3ccc(S(N)(=O)=O)s3)c2)n1 [Example 143, 5-{2-Fluoro-5-[3-(6-methylpyridin-2-yl)-1H-pyrazol-4-yl]phenyl}thiophene-2-sulfonamide] | 125
